The target in one assay is T1, 14-3-3ε protein (Homo sapiens, UniProt P62258).
T1 sequence (P62258 1-255): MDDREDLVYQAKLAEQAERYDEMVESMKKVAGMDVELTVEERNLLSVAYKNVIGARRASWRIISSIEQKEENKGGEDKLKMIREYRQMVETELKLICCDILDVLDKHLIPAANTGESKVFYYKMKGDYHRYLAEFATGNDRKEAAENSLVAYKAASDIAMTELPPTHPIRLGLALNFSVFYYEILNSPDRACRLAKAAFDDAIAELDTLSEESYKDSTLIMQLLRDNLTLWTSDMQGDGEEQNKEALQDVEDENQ
Kind of assay: Differential scanning fluorimetry (DSF) binding. To be noted: 7 μM 14-3-3ε, ΔTm vs peptide concentration, Hill fit; read-out: Kd, binding affinity to 14-3-3ε protein (DSF). How it is done: Differential scanning fluorimetry (DSF) experiments were performed using BioRad CFX384 Real-Time qPCR attached with C1000 Touch Thermo Cycler in the FRET channel. 7 μM subunits of 14-3-3ε protein, ten molar excess of Sypro Orange and 20 mM Tris-HCl, pH 7.4 assay buffer were used in all the melting experiments. Stock solution of peptides were prepared by dissolving 1 mg of lyophilized peptides in 20 mM Tris, pH 7.4 buffer and 0.1 μM to 200 μM dilution series were prepared. Protein melting experiments were performed both in the absence and the presence of increasing concentration of peptides. 15 μL of each samples (in triplicate) were put into each well of a 384-well white PCR plate and sealed with optical adhesive sealer (BioRad MSB-1001) and any air-bubble in the solutions were removed by spinning the plate vertically with PCR plate spinner (Labnet MPS 1000) at 1000 RPM for 3 minutes. The temperature was increased from 25° C. to 95° C. at a rate of 0.7° C. per minute. Melting temperatures of each well were determined using the CFX Maestro software version 2.0 by plotting the first derivative of fluorescence signal against temperature. All the measurements were performed in triplicate and the deviations of melting temperatures (ΔTm) presented for each samples were calculated relatively to three control samples (7 μM 14-3-3ε in the absence of the peptide). Binding constant (Kd) for each peptide was calculated by plotting ΔTm against peptide concentration and data points were fitted with Hill's equation using GraphPad 9.0 software.

The next assay has as its system SCC12B.2 cells. The format is cell-based, human. As to conditions: 5-FU alone, concentration printed as 2004, FIG. 1D. How it is done: Human skin cancer cell lines (SCC12B.2, SCC13, SRB12) were maintained in Dulbecco's modified Eagle's medium (DMEM) (Invitrogen, Carlsbad, Calif., USA) supplemented with 1% penicillin (10 000 U/ml)-streptomycin (10 000 μg/ml) (PenStrep) (Invitrogen) and 10% fetal bovine serum (Gemini Bio-Products, Sacramento, Calif., USA) at 37° C. and 5% CO2. Normal human epidermal keratinocytes (nHEK) (Thermo Scientific, Waltham, Mass., USA) isolated from neonatal foreskin were cultured in EpiLife medium (Invitrogen) supplemented with human keratinocyte growth supplement (Invitrogen) and 1% PenStrep (Invitrogen). Cells were transfected with control pcDNA or pcDNA3.1-HA-14-3-3ε (Addgene plasmid #48797; http://n2t.net/addgene:48797; RRID:Addgene_48797) using Lipofectamine/Plus reagents (Life Technologies, Carlsbad, Calif., USA) or with siRNA targeting 14-3-3ε (Dharmacon, Lafayette, Colo., USA), 14-3-3γ (Dharmacon), 14-3-3ζ, (Dharmacon), Survivin (Cell Signaling, Danvers, Mass., USA), Akt (Dharmacon) or control siRNA (Santa Cruz Biotechnology, Dallas, Tex., USA) using siQuest transfection reagents (Mirus Bio, Madison, Wis., USA) or treated with Akt inhibitor GSK690693 (Tocris Bioscience, Bristol, United Kingdom) or cell cycle inhibitor 5-Fluorouracil (5-FU) (Thermo Fisher) resuspended in DMSO.
To determine the half maximal inhibitory concentration (IC50) for ES1P2 in SCC12B.2 and nHEK cells, cells were plated in a 96-well plate at a density of 6×10^3 cells/well. Twenty-four hours after plating, cells were treated with increasing concentrations of ES1P2 (0-75 μM) in Opti MEM medium supplemented with reduced serum (Invitrogen) for 4 consecutive days. ES1P2 peptide was resuspended fresh, daily in 25 mM Tris buffer (pH 7.5). Neutral Red Cell Viability assays were performed, where absorbance was measured using a Cytation 5 multi-mode plate reader (BioTek). The experiment was repeated three separate times with 4 replicate wells per experiment to obtain an average IC50 value.
Carcinoma human cell lines (SCC12B.2 and SCC13) were maintained in Dulbecco's modified Eagle's medium (DMEM) (Invitrogen, Carlsbad, Calif., USA) supplemented with 1% penicillin (10 000 U/ml)-streptomycin (10 000 μg/ml) (PenStrep) (Invitrogen) and 10% fetal bovine serum (Gemini Bio-Products, Sacramento, Calif., USA) at 37° C. and 5% CO2. Primary normal human epidermal keratinocytes (nHEK) (Thermo Fisher Scientific, Waltham, Mass., USA) isolated from neonatal foreskin were maintained in EpiLife medium (Invitrogen) supplemented with human keratinocyte growth supplement (HKGS) and 1% PenStrep. nHEK cells were not passaged more than twice before experiments. Cells were treated with CDC25A inhibitor NSC663284 (Tocris Bioscience, Bristol, United Kingdom) suspended in DMSO, transfected with wild type CDC25A or control plasmid using Lipofectamine/Plus transfection reagents (Life Technologies, Carlsbad, Calif., USA) or transfected with siRNA targeting 14-3-3 ε or control siRNA (Santa Cruz Biotechnology, Dallas, Tex., USA) using siQuest transfection reagents (Mirus Bio, Madison, Wis., USA).
To determine the half maximal inhibitory concentration (IC50) for pS and pT in SCC12B.2 cells, cells were plated in a 96-well plate at a density of 6×10^3 cells/well. […] Neutral Red Cell Viability assays were performed, where absorbance was measured using a Cytation 5 multi-mode plate reader (BioTek). […]

Peptide text beside a SMILES is read from it.

As to `CC(=O)N[C@@H](CCC(N)=O)C(=O)N[C@@H](CCCNC(=N)N)C(=O)N[C@@H](Cc1ccc(O)cc1)C(=O)N[C@@H](CC(N)=O)C(=O)N[C@@H](COP(=O)(O)O)C(=O)N[C@@H](C)C(=O)N1CCC[C@H]1C(=O)N[C@@H](C)C(=O)N[C@@H](CCCNC(=N)N)C(N)=O` [Ac-Gln-Arg-Tyr-Asn-Ser-(PO3^2−)-Ala-Pro-Ala-Arg-NH2] (HELM PEPTIDE1{[ac].Q.R.Y.N.[O=C([C@H](COP(=O)(O)O)N[*:1])[*:2]].A.P.A.R.[am]}$$$$V2.0), the Kd on 14-3-3ε protein stood at 9.34 µM.

For the molecule `CC(=O)N[C@@H](CCCNC(=N)N)C(=O)N[C@H](C(=O)N[C@@H](CCCCN)C(=O)N[C@@H](CO)C(=O)N[C@@H](CCCNC(=N)N)C(=O)N[C@H](C(=O)N[C@@H](Cc1ccc(O)cc1)C(=O)N[C@@H](C)C(=O)NCC(N)=O)[C@@H](C)OP(=O)(O)O)[C@@H](C)O` [Ac-Arg-Thr-Lys-Ser-Arg-Thr(PO3^2−)-Tyr-Ala-Gly-NH2] (HELM PEPTIDE1{[ac].R.T.K.S.R.[C[C@@H](OP(=O)(O)O)[C@H](N[*:1])C(=O)[*:2]].Y.A.G.[am]}$$$$V2.0), the dissociation constant (Kd) at 14-3-3ε protein was determined as 2.34 µM.

On to `CC(=O)N[C@@H](CCC(N)=O)C(=O)N[C@@H](CCCNC(=N)N)C(=O)N[C@@H](Cc1ccccc1)C(=O)N[C@@H](CC(N)=O)C(=O)N[C@@H](COP(=O)(O)O)C(=O)N[C@@H](C)C(=O)N1CCC[C@H]1C(=O)N[C@@H](C)C(=O)N[C@@H](CCCNC(=N)N)C(N)=O` [Ac-Gln-Arg-Phe-Asn-Ser-(PO3^2−)-Ala-Pro-Ala-Arg-NH2] (HELM PEPTIDE1{[ac].Q.R.F.N.[O=C([C@H](COP(=O)(O)O)N[*:1])[*:2]].A.P.A.R.[am]}$$$$V2.0), for which, on 14-3-3ε protein, the equilibrium dissociation constant (Kd) was 8.29 µM.

Take `O=c1[nH]cc(F)c(=O)[nH]1` [5-FU, 5-Fluorouracil, reference compound]: the SCC cells alive in the assay with SCC12B.2 cells is 71.5 % alive.

The values above are taken from patent publication US11685766B2, “14-3-3 targeting peptides for cancer treatment” (Creighton University, priority 2019, dated 2023).
